Experiment [1] relates to adult male C57 mice. Put plainly: Tail suspension test (TST). The format is in vivo, mouse. Particulars: route sc, p < 0.05 compared to vehicle-treated mice; for minimal effective dose: Mus musculus, read-out: Active TST Dose. As to the method:
The experiments were performed using adult male C57 mice (6-10 weeks of age, 20-30 g, Hilltop Lab, PA). The mice were housed in standard rodent cages with stainless steel mesh wire bar lids in groups of 4 with controlled temperature and light cycle (6:00 a.m.-6:00 p.m.). Animals were given free access to food (Harlan Teklad Global 18% protein (Madison, Wis.)) and water during a minimum 2-day habituation period to the laboratory. Animals that were used in the study were handled, housed, and sacrificed (using compressed CO2) in accord with the current NIH guidelines regarding the use and care of laboratory animals, and all applicable local, state, and federal regulations and guidelines. Animals are identified by cage number, and by markings applied to the proximal tip of the tail using a permanent marker. Group sizes (n=8, and therefore 30-50 animals per study) provide reliable estimates of treatment effects, and this species and strain of mouse has been recognized as appropriate for pharmacology studies.
To measure efficacy of the compounds the compounds were tested using a tail suspension test. The tail suspension test is a behavioral test used to evaluate the efficacy of antidepressant drugs in rodents. In the TST, mice (n=8/group) were suspended by the tail with tape approximately 30-50 cm above the lab bench. Mice are positioned such that the base of their tail is perpendicular to the lab bench. Each mouse is given 1 trial that last 6 minutes. The total duration of immobility is calculated as the percentage of time that the mouse is immobile. The duration of immobility is the main parameter measured. This is calculated from the cumulated time during which the animals is absent of initiated movements including passive swaying. When antidepressant drugs are administered, immobility is decreased by a variety of classes of antidepressant drugs. One or more of the compounds show antidepressant activity.

The subject of experiment [2] is mouse. In words: Tactile allodynia produced by nitroglycerin (migraine model, mouse). The format is in vivo. Particulars: route sc, nitroglycerin 10 mg/kg ip, p < 0.05 vs vehicle; for minimal effective dose: read-out: Active Migraine Doses. As to the method:
Compounds were tested for efficacy in rodent models of nitroglycerine induced migraine. In this model both rats and mice can be induced to have a behavioral response consistent with the progression of a migraine attack by the intraperitoneal injection of nitroglycerin. In this test mice or rats (n=8/group) are given an intraperitoneal injection of nitroglycerin at 10 mg/kg. After 90 minutes the animals are subcutaneously dosed with test compound. A measurement of mechanical allodynia will be obtained using the up/down method with seven von Frey monofilaments. There is a specific series used for rat and mouse. Each monofilament is delivered to the hind paw for approximately 1-2 seconds. If there is a response, the next lower force will be delivered. This procedure will be performed until no response was made at the highest force or until four stimuli are administered following the initial response. The 50% paw withdrawal threshold for the hind paw will be calculated using the following formula: [Xth]log=[vFr]log+ky where [vFr] is the force of the last von Frey used, k is the average interval (in log units) between the von Frey monofilaments, and y is a value that depends upon the pattern of withdrawal responses. Testing for tactile sensitivity will be performed and a withdrawal value will be assigned as the tactile sensitivity (expressed in grams of force required to elicit a response) for the injected paw for each animal. Data is presented as the mean grams required to produce a hind paw withdrawal from the von Frey stimulus. […] Compounds found to be effective in this model of migraine at the doses indicated, although other doses may also be active. Other compounds described herein were not necessarily tested, but are expected to be able have some level of efficacy.

Experiment [3] has as its system rat. Put plainly: Tactile allodynia produced by nitroglycerin (migraine model, rat). The format is in vivo. Particulars: route sc, nitroglycerin 10 mg/kg ip, p < 0.05 vs vehicle.
In experiment [4] the test system is rat. In words: Mechanical allodynia after Freund's Complete Adjuvant, Randall-Selitto (rat). The format is in vivo. Particulars: route sc, p < 0.05 vs vehicle. As to the method:
(§1) Animals were acclimated to the vivarium for at least 48 hr prior to behavioral testing. Inflammation was induced for both rodent species with the administration of an intraplantar (subcutaneous injection into the plantar surface of the hind paw, i.pl.) injection of 0.10 ml Freund's Complete Adjuvant (FCA).
For rat studies, the experiments were conducted 24 hours after CFA administration. Rats are tested for mechanical allodynia in a Randall-Selitto apparatus. The inflamed paw is put on a pedestal and a pointed force of increasing intensity (0 to 250 grams) is applied to the paw. When the animal struggles to withdraw from the force the test is stopped and the force to induce that struggle is recorded. Data may be presented as mean grams of force to withdrawal or a percentage of the maximum possible effect.

Experiment [5] has as its system mouse. Put plainly: Tactile allodynia produced by intraplantar Freund's Complete Adjuvant, von Frey (mouse). Particulars: route sc, p < 0.05 vs vehicle. The format is in vivo. As to the method: as §1
For mouse studies, the experiments were conducted 48 hours after FCA administration. Tactile allodynia was measured using a series of von Frey monofilaments. These filaments are bendable, plastic and intended to poke, not penetrate, the skin. Animals were placed in a Plexiglas chamber (approximately 10 cm×20 cm×25 cm) and allowed to habituate for 5-10 minutes. The chamber was positioned on top of a mesh screen so that von Frey monofilaments can be presented to the plantar surface of the hind paw that is inflamed. The measurement of tactile sensitivity for the injected hind paw is obtained using the up/down method (LaBuda and Little, 2005, J Neurosci. Methods, 144, 175) with […]. Each trial will start with a von Frey force of 0.6 grams delivered to the hind paw for approximately 1-2 seconds. If there was no withdrawal response, the next higher force was be delivered. If there was a response, the next lower force was delivered. This procedure was performed until no response was made at the highest force (2 grams) or until four stimuli are administered following the initial response. The 50% paw withdrawal threshold for the hind paw was be calculated using the following formula: [Xth]log=[vFi]log+ky where [vFr] is the force of the last von Frey used, k is the average interval (in log units) between the von Frey monofilaments, and y is a value that depends upon the pattern of withdrawal responses (Dixon, Annual Review Pharmacol Toxicol, 1980, 20, 441).

Where two headings read alike, the source gives them in different places. Some results are limits rather than exact numbers.

With `COc1ccc([C@@H]2CCN(CCn3cccc3)[C@H](C)[C@H]2COc2ccc3c(c2)C(=O)NC3)cc1` [Compound B0876, (−)-6-{[trans, trans-4-(4-methoxyphenyl)-2-methyl-1-[2-(1H-pyrrol-1-yl)ethyl]piperidin-3-yl]methoxy}-2,3-dihydro-1H-isoindol-1-one], the minimal effective dose was not above 30 mg/kg in experiment [1] (po) and not above 10 mg/kg in experiment [2]. For the same compound, the “Active Migraine Doses” value in experiment [3] was not above 10 mg/kg.
`C[C@@H]1[C@@H](COc2ccc3c(c2)C(=O)NC3)[C@H](c2ccc(F)cc2)CCN1CC1CC1` [Compound B0720]: the minimal effective dose in experiment [1] (po) and in experiment [2] was not above 10 mg/kg each time. Also, the “Active CFA Dose” value in experiment [4] is given as not above 30 mg/kg.
Take `COCCOc1ccc([C@@H]2CCN(CCn3cccc3)[C@H](C)[C@H]2COc2ccc3c(c2)C(=O)NC3)cc1F` [Compound B1205, (−)-6-{[trans, trans-4-[3-fluoro-4-(2-methoxyethoxy)phenyl]-2-methyl-1-[2-(1H-pyrrol-1-yl)ethyl]piperidin-3-yl]methoxy}-2,3-dihydro-1H-isoindol-1-one]: the minimal effective dose in experiment [1] (po) is not above 30 mg/kg; in experiment [2], not above 10 mg/kg. Further, the “Active Migraine Doses” value in experiment [3] is given as not above 10 mg/kg.
`CC1C(COc2ccc3c(c2)C(=O)NC3)C(c2ccc3c(c2)OCCC3)CCN1CCn1cccc1` (single isomer, unassigned; (-)) [Compound B1365, (−)-6-{[trans, trans-4-(3,4-dihydro-2H-1-benzopyran-7-yl)-2-methyl-1-[2-(1H-pyrrol-1-yl)ethyl]piperidin-3-yl]methoxy}-2,3-dihydro-1H-isoindol-1-one]: the “Active TST Dose” value in experiment [1] is not above 10 mg/kg. Besides, the “Active Migraine Doses” value in experiment [2] and in experiment [3] was not above 10 mg/kg each time.
On to `C[C@@H]1[C@@H](COc2ccc3c(c2)C(=O)NC3)[C@H](c2ccccc2)CCN1CCC=C(F)F` [Compound B1211], for which the minimal effective dose in experiment [1] and in experiment [2] was not above 10 mg/kg each time.
Regarding `COCCOc1ccc([C@@H]2CCN(CCc3ccccc3F)[C@H](C)[C@H]2COc2ccc3c(c2)C(=O)NC3)cc1` [Compound B1079], the minimal effective dose in experiment [1] (po) was not above 30 mg/kg.
Take `COc1cc(F)cc(C2CCN(CCn3cccc3)C(C)C2COc2ccc3c(c2)C(=O)NC3)c1` (mixture of isomers) [Compound B1274, (+/−)-6-{[(trans, trans)-4-(3-fluoro-5-methoxyphenyl)-2-methyl-1-[2-(1H-pyrrol-1-yl)ethyl]piperidin-3-yl]methoxy}-2,3-dihydro-1H-isoindol-1-one]: the “Active TST Dose” value in experiment [1] is on record as not above 10 mg/kg.
`COCCOc1ccc([C@@H]2CCN(CCc3ccccc3)[C@H](C)[C@H]2COc2ccc3c(c2)C(=O)NC3)cc1F` [Compound B1194, (−)-6-{[trans, trans-4-[3-fluoro-4-(2-methoxyethoxy)phenyl]-2-methyl-1-(2-phenylethy)piperidin-3-yl]methoxy}-2,3-dihydro-1H-isoindol-1-one]: the minimal effective dose in experiment [1] and in experiment [2] was not above 10 mg/kg in each case.
As to `COc1ccc([C@@H]2CCN(CCC=C(F)F)[C@H](C)[C@H]2COc2ccc3c(c2)C(=O)NC3)cc1` [Compound B1145, (−)-6-{[trans, trans-1-(4,4-difluorobut-3-en-1-yl)-4-(4-methoxyphenyl)-2-methylpiperidin-3-yl]methoxy}-2,3-dihydro-1H-isoindol-1-one], the minimal effective dose in experiment [1] (po) and in experiment [2] was not above 10 mg/kg each time. Also, the “Active CFA Dose” value in experiment [5] is reported as not above 10 mg/kg.
For the compound `COc1cc(F)cc([C@@H]2CCN(CCn3cccc3)[C@H](C)[C@H]2COc2ccc3c(c2)C(=O)NC3)c1` (racemic) [Compound B1401, (−)-6-{[trans, trans-4-(3-fluoro-5-methoxyphenyl)-2-methyl-1-[2-(1H-pyrrol-1-yl)ethyl]piperidin-3-yl]methoxy}-2,3-dihydro-1H-isoindol-1-one], the minimal effective dose in experiment [1] and in experiment [2] was not above 10 mg/kg in each case. The “Active Migraine Doses” value in experiment [3] is not above 10 mg/kg.
